Laboratory results published in ChEMBL document CHEMBL1201862, “PubChem BioAssay data set” (2004).
Activity calls are given as the source filed them.

What was measured:
Aspartyl aminopeptidase = target: T1, Aspartyl aminopeptidase (Plasmodium falciparum 3D7, UniProt Q8I2J3); experiment: Counterscreen for inhibitors of M1 and M17 aminopeptidases: QFRET-based biochemical high throughput dose response assay for inhibitors of the Plasmodium falciparum M18 Aspartyl Aminopeptidase (PFM18AAP). [Related PubChem assays: 1619 (Screening assay (M17LAP inhibitors).), 1445 (Screening assay (M1AAP inhibitors).)]
T1 sequence (Q8I2J3 whole entry): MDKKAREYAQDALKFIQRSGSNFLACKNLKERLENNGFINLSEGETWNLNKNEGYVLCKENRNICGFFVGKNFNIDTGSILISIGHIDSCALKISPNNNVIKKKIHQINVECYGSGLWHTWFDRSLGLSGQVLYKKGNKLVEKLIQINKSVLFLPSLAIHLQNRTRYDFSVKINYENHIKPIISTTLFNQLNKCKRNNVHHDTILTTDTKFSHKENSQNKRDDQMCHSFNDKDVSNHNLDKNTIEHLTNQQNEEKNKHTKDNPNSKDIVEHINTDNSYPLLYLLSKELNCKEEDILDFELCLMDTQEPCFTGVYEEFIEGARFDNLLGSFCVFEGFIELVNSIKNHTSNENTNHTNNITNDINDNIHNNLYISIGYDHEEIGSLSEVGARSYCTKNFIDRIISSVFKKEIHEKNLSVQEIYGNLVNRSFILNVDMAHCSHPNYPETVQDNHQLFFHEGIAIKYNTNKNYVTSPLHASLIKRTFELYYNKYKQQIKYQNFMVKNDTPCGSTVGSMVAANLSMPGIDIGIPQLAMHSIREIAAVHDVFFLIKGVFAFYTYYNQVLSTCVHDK

Procathepsin L = Procathepsin L (Homo sapiens, UniProt P07711); experiment: cathepsin L inhibitors, dose response, counter-screen for M1/M17 aminopeptidase inhibitor project, biochemical, QFRET, 1536-well (AID 2214)
Leucine aminopeptidase = target: T2, Leucine aminopeptidase (Plasmodium falciparum 3D7, UniProt Q8IL11); experiment: P. falciparum M17LAP inhibitors, primary screen, biochemical, fluorogenic H-Leu-NHMec substrate, 1536-well (AID 1619); type: functional
T2 sequence (Q8IL11 whole entry): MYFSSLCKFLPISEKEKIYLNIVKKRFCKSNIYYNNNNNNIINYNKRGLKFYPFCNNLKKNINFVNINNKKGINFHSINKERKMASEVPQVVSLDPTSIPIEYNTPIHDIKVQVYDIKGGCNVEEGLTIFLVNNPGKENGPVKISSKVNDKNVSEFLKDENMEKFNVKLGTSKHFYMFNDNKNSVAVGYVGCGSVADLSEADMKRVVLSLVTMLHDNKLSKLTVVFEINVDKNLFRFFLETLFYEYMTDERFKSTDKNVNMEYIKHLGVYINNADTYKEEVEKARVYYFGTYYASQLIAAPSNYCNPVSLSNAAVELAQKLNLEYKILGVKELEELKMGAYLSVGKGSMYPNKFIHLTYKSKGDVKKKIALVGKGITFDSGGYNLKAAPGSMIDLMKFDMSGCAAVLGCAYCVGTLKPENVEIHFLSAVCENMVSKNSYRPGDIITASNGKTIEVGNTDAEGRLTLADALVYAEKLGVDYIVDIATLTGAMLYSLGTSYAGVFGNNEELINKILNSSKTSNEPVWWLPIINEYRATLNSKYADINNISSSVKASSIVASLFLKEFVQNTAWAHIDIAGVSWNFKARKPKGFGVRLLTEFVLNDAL

Estrogen receptor = target: T3, Estrogen receptor (Homo sapiens, UniProt P03372);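 further: potency for inhibiting coactivator peptide recruitment to the receptor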
T3 sequence (P03372 whole entry): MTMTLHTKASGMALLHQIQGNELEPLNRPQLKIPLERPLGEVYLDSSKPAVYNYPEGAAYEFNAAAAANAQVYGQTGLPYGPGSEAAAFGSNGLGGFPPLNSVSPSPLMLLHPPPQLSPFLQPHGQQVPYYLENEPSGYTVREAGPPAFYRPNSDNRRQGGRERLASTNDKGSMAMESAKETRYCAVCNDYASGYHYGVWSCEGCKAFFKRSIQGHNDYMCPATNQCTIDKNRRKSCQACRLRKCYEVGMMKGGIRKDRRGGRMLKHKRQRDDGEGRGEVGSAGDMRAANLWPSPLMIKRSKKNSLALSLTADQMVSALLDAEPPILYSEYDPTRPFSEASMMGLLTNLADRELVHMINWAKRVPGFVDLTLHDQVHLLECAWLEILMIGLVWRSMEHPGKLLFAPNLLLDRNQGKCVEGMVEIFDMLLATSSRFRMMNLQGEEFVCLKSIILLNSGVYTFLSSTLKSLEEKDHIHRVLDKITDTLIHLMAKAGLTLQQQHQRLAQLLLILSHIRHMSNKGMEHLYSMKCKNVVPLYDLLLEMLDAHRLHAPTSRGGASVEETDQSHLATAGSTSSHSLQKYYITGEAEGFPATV

[1] = HepG2 cell cytotoxicity, dose response, cytotoxicity control, cherry-picked samples (AID 1159577); type: functional, cell-based
[2] = P. falciparum Dd2 growth inhibitors, dose response, SYBR Green, cherry-picked samples (AID 1159567); type: functional, cell-based
[3] = target: NAD-dependent protein deacylase sirtuin-5, mitochondrial (Homo sapiens, UniProt Q9NXA8); experiment: SIRT5 desuccinylase inhibitors, dose response, biochemical, fluorescence imaging, cherry-pick, set 5 (AID 720591);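 further: desuccinylation of succinyl peptide AMC substrate read as fluorescence after trypsin release; potency of inhibitors that lower fluorescence and may act on trypsin instead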
Aminopeptidase N = target: T4, Aminopeptidase N (Plasmodium falciparum FcB1/Columbia, UniProt O96935); experiment: P. falciparum M1AAP inhibitors, biochemical, fluorogenic H-Leu-NHMec substrate, 1536-well (AID 1445); set-up: species or system Plasmodium falciparum 3D7, 3D7
T4 sequence (O96935 whole entry): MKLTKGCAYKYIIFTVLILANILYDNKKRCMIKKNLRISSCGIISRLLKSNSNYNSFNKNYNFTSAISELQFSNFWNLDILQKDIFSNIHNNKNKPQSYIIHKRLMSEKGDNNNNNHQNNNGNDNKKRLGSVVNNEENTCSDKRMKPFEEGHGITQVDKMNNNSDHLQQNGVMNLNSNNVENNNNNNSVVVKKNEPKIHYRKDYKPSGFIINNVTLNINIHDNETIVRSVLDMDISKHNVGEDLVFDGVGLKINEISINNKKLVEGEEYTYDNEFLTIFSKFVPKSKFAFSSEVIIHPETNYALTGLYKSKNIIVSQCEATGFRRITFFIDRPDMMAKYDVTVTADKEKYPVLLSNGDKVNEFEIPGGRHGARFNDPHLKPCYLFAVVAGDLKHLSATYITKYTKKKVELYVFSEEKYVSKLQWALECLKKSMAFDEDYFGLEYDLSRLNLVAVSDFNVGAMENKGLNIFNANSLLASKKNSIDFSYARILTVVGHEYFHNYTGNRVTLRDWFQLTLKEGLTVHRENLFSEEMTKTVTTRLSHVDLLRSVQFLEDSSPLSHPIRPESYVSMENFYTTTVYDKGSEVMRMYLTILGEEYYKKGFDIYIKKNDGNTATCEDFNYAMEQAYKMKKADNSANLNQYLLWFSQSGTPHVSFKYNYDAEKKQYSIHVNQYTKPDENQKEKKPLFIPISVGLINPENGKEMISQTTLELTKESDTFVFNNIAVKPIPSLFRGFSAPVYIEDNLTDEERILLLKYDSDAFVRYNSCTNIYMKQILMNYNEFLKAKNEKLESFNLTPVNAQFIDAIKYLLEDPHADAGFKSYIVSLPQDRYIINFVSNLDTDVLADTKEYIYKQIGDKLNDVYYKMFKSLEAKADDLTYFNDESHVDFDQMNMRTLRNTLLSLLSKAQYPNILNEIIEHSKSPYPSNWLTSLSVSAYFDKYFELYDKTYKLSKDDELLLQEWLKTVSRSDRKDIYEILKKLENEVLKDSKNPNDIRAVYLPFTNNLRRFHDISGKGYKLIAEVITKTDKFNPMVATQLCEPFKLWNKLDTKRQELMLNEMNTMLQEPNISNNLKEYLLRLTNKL

[4] = inhibitors of intracellular T. cruzi replication, confirmation, NIH3T3 host cells, beta-gal luminescence (AID 2044); type: functional, cell-based;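 further: intracellular parasites grown in NIH/3T3 mouse fibroblasts as host cells; luminescent beta-galactosidase reporter signal from transgenic T. cruzi replicating inside host cells; inhibitors lower the luminescence signal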
[5] = cytotoxicity toward NIH3T3 fibroblasts, dose response, counter-screen, cell-based, ATP luminescence, mouse fibroblasts (AID 2010); type: functional;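 further: cells exposed to compound for about 90 hours before reading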
[6] = target: Luciferin 4-monooxygenase (Photinus pyralis, UniProt P08659); experiment: Counter Screen for Luciferase-based Assay Positives. [Related pubchem assays: 620, 618, 411 ]
HT-1080 = experiment: cytotoxicity in HT1080 fibrosarcoma cells, cell-based, fluorescence readout (AID 620); type: functional; settings: Homo sapiens
Cytochrome P450 2D6 = Cytochrome P450 2D6 (Homo sapiens, UniProt P10635); experiment: qHTS Assay for Inhibitors and Substrates of Cytochrome P450 2D6. [Related pubchem assays: 410 ]; type: ADME; settings: read-out: Potency
[7] = target: Neurotensin receptor type 1 (Homo sapiens, UniProt P30989); type: functional;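 further: Image-based confirmatory dose-response assay measuring agonist activity at NTR1; NTR1-expressing U2OS osteosarcoma cells imaged for beta-arrestin GFP spot formation; agonist potency where compounds increase beta-arrestin recruitment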
[8] = target: Glyceraldehyde-3-phosphate dehydrogenase (Homo sapiens, UniProt P04406)
[9] = target: T5, Corticotropin-releasing factor receptor 2/Corticotropin-releasing factor-binding protein (Homo sapiens, UniProt P24387+Q13324); experiment: activators of CRF receptor 2 with binding protein – uHTS hits, confirmation (AID 602473); type: functional; settings: read-out: EC50_Mean
T5 sequence (Q13324 whole entry): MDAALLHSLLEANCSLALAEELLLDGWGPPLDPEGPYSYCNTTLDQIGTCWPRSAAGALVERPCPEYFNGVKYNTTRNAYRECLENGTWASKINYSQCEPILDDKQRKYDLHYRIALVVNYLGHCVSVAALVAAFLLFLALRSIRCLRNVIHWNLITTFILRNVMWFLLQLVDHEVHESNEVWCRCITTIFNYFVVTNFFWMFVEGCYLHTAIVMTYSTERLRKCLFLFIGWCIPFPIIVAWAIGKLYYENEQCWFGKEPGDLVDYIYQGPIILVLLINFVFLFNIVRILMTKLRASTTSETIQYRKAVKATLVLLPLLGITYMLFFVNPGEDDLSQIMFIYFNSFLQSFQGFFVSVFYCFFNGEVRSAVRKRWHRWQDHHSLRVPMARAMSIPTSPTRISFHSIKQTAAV
T5 sequence (P24387 whole entry): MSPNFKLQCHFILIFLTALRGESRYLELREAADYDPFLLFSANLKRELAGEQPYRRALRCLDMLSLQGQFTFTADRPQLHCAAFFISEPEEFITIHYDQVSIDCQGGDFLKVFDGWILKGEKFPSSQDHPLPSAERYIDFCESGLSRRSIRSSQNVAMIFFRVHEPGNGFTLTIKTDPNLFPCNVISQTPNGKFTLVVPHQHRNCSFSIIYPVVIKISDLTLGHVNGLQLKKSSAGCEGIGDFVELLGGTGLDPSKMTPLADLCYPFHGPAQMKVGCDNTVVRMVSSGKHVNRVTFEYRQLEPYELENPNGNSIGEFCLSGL

[10] = Shn3 3'UTR reporter inhibitors, dose response, cell-based, Clone20 osteoblasts, firefly luciferase, cherry-picked (AID 624132); type: functional;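 further: firefly luciferase luminescence from reporter carrying the Shn3 3'UTR in osteoblasts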
[11] = reduction of Shn3 3'UTR firefly luciferase signal, dose response, Schnurri-3 inhibitor project, cell-based, Clone20 osteoblasts, cherry-pick, set 2 (AID 720490); type: functional;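 further: actives lower the luminescence signal as inhibitors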
[12] = target: Metabotropic glutamate receptor 5 (Rattus norvegicus, UniProt P31424); experiment: Identification of a glycine sulfonamide based non-MPEP site positive allosteric potentiator (PAM) of mGlu5 (calcium_assay).; type: functional
Sequence of Metabotropic glutamate receptor 5 (P31424 whole entry): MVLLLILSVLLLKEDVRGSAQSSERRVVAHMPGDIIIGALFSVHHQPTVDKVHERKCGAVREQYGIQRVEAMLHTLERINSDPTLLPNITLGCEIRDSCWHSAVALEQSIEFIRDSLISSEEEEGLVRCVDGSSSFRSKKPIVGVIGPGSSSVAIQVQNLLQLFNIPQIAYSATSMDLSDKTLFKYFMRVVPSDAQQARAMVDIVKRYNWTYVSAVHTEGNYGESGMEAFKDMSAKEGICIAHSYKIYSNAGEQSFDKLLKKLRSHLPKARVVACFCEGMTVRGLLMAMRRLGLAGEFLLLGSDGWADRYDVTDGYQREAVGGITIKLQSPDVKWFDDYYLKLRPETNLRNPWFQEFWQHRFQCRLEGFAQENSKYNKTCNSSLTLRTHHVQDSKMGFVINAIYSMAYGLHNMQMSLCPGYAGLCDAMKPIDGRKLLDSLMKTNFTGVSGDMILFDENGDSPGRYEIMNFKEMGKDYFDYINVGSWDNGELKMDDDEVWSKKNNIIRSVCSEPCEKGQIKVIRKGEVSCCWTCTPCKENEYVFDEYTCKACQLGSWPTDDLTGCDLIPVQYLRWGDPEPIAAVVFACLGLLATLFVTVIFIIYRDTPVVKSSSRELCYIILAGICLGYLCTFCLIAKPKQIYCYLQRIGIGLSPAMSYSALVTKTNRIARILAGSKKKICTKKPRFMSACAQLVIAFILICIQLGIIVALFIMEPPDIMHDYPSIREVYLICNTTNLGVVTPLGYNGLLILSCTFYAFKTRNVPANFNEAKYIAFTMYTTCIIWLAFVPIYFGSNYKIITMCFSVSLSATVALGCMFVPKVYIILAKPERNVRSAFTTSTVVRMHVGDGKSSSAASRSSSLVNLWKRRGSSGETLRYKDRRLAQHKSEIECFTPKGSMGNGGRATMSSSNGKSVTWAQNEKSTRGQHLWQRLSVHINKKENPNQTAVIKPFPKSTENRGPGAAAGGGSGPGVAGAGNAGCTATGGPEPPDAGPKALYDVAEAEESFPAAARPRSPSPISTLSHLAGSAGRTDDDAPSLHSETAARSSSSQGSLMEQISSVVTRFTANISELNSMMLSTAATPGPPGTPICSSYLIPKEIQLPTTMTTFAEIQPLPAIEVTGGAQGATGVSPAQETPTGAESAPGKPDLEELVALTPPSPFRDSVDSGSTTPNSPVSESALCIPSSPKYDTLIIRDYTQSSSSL

Sequence of Procathepsin L (P07711 whole entry): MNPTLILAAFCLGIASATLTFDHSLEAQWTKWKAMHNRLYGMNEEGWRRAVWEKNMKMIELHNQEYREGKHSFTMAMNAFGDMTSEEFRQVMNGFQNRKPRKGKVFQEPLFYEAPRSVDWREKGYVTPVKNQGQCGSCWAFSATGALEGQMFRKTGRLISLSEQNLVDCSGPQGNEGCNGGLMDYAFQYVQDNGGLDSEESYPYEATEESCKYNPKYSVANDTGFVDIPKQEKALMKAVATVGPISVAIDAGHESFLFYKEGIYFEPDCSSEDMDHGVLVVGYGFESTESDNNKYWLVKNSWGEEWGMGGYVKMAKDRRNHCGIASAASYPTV
Sequence of Luciferin 4-monooxygenase (P08659 whole entry): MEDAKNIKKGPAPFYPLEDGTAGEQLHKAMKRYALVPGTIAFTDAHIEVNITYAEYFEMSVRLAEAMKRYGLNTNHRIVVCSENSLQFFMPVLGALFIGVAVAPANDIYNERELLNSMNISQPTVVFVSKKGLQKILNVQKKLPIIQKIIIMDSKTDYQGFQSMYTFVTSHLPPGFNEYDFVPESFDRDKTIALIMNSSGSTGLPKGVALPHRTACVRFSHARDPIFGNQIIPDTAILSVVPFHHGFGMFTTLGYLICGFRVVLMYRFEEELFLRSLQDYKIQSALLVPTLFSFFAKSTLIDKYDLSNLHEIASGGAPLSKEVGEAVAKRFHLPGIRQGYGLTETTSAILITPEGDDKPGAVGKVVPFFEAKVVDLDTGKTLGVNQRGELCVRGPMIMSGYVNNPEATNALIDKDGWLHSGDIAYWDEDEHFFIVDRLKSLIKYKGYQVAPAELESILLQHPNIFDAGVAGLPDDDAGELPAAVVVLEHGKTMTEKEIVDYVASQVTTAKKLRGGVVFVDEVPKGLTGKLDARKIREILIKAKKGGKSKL
Sequence of NAD-dependent protein deacylase sirtuin-5, mitochondrial (Q9NXA8 whole entry): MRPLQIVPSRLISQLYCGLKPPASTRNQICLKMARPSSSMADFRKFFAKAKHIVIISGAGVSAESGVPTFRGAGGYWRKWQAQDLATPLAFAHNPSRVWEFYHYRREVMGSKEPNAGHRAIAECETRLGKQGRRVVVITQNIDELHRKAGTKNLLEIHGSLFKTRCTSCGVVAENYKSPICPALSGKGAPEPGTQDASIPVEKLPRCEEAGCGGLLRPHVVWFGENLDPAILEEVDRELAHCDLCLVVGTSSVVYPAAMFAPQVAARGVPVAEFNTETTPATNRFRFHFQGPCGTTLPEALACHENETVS
Sequence of Cytochrome P450 2D6 (P10635 whole entry): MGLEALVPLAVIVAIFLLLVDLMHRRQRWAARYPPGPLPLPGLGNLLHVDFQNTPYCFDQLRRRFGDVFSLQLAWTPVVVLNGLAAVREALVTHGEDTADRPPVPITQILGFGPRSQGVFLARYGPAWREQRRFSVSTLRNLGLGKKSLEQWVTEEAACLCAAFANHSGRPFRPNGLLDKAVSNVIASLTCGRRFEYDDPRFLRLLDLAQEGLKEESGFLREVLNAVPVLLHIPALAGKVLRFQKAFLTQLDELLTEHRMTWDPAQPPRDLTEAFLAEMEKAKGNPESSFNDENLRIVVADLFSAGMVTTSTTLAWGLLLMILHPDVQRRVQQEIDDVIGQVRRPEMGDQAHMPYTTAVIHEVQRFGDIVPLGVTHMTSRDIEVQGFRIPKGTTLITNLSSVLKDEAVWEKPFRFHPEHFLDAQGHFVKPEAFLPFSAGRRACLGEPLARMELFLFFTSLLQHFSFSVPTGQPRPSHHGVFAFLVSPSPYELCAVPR
Sequence of Glyceraldehyde-3-phosphate dehydrogenase (P04406 whole entry): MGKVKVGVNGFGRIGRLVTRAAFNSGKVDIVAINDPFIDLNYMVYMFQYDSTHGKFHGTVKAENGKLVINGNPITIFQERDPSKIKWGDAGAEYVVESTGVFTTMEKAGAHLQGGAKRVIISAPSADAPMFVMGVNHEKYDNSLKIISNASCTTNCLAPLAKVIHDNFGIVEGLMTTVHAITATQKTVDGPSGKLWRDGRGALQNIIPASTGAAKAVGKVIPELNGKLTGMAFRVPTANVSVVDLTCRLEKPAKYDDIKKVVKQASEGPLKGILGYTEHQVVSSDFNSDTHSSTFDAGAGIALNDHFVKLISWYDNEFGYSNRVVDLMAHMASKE
Sequence of Neurotensin receptor type 1 (P30989 whole entry): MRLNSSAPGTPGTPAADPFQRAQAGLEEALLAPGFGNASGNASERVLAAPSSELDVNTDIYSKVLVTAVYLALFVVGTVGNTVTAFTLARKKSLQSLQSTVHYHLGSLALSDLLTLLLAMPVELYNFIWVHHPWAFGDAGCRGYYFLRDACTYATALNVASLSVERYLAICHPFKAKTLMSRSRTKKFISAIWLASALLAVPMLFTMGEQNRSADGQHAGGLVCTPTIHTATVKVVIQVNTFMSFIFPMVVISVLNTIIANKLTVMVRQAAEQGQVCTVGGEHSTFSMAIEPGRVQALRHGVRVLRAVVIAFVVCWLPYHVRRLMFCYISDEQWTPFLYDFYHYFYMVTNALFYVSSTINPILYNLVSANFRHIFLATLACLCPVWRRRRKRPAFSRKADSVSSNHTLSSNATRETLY

## C=CCn1c(SCC(=O)Nc2cccc3ccccc23)nc(=O)c(CC)c1O
Aspartyl aminopeptidase
  IC50: > 73.5 µM (not active)
Procathepsin L
  IC50: > 59.6 µM (not active)
Leucine aminopeptidase
  IC50: 4.06 µM (active)

## COc1ccc2cc3c(N)nn(C(=O)Cc4ccc(Cl)cc4)c3nc2c1
Estrogen receptor
  IC50: 24.8 µM (active)

## Cc1ccc(NC(=O)CSc2nc(O)c3c(n2)CCC3)cc1C
Aspartyl aminopeptidase
  IC50: > 73.5 µM (not active)
Procathepsin L
  IC50: > 59.6 µM (not active)
Leucine aminopeptidase
  IC50: 5.9 µM (active)

## N#Cc1ccc(-c2ccc([C@@H]3[C@@H]4CN(Cc5ccccc5F)C[C@H]3N4)cc2)cc1
[1]
  AC50: 9.39 µM (active)
[2]
  AC50: 1.88 µM (active)

## Cc1cc(=O)oc2c(C)c(OC(C)C(=O)NCCCN3CCCC3=O)ccc12 (configuration not stated)
[3]
  AC50: > 30 µM (inactive)

## O=C(Nn1c(C2CCC2)nc2ccccc2c1=O)c1cccs1
Aspartyl aminopeptidase
  IC50: > 73.5 µM (not active)
Procathepsin L
  IC50: > 59.6 µM (not active)
Aminopeptidase N
  IC50: 8.54 µM (active)

## CC(C)Oc1ccc(CNCCC2(C(C)C)CCOC(C)(C)C2)cc1 (configuration not stated)
[4]
  EC50: < 0.1 µM (active)
cells
  EC50: 0.154 µM (active)
[5]
  EC50: > 60 µM (not active)

## CCCCN(C)C(=O)c1cc2cc3ccc(OC)cc3nc2s1
[6]
  EC50: 0.22 µM (active)
HT-1080
  EC50: > 50 µM (not active)

## Cc1ccc(C(=O)[C@@H]2[C@@H]3[C@@H](C(=O)[C@@H]4OC[C@H]3O4)[C@@H]3C=Cc4ccccc4N23)cc1
Cytochrome P450 2D6
  AC50: 20 µM (inconclusive)

## O=C(CCCn1cnc([N+](=O)[O-])n1)Nc1ccc(F)c(Cl)c1
[4]
  EC50: < 0.1 µM (active)
cells
  EC50: 0.098 µM (active)
[5]
  EC50: > 60 µM (not active)

## COC(=O)c1ccc(/C=C/C(=O)OCC(=O)Nc2sccc2C(N)=O)cc1
[7]
  EC50: 18.9 µM (active)

## Cc1ccc(S(=O)(=O)CC(=O)N(CCCN(C)C)c2nc3ccc(C)cc3s2)cc1
[4]
  EC50: < 0.1 µM (active)
cells
  EC50: 0.06 µM (active)
[5]
  EC50: > 30 µM (not active)

## O=S(=O)(NCc1csc(-c2cccnc2)n1)c1cccs1
Estrogen receptor
  IC50: 18 µM (active)

## COCCn1c(C)cc(C(=O)CSc2ccc(NC(C)=O)cc2)c1C
[6]
  EC50: 3.66 µM (active)
[8]
  IC50: > 100 µM (not active)
HT-1080
  EC50: > 50 µM (not active)
[9]
  EC50: > 53 µM (inactive)

## CCCCN1CC(COCc2ccccc2)Oc2cccc(Oc3ccc(C(C)C)cc3)c2S1(=O)=O (configuration not stated)
[10]
  AC50: 5.03 µM (active)
[11]
  AC50: 4.4 µM (active)

## COc1cccc(CN2C[C@@H]3N[C@H](C2)[C@@H]3c2ccc(-c3ccncc3)cc2)c1
[1]
  AC50: > 39 µM (inactive)
[2]
  AC50: 4.63 µM (active)

## CC(C)NC(=O)CN(c1ccccc1Cl)S(C)(=O)=O
[12]
  EC50: > 30 µM (inactive)

## CC(C(=O)NC(N)=O)N1C(=O)NC(c2ccccc2)(c2ccccc2)C1=O (configuration not stated)
[3]
  AC50: > 30 µM (inactive)
